Measurements taken from patent US20110224276A1, “OPTICAL ISOMER OF PHENYLPROPIONIC ACID AND ITS MEDICINAL USE” (priority 2008, published 2011).

Assays:
[1] = system: writhing in mice induced by acetic acid; test: writhing in mice induced by acetic acid; type: in vivo; settings: for ED50: Mus musculus, read-out: ED50 (mg/kg) of inhibition of writhing; for maximum inhibitory rate (%) on mouse writhing: ig 1 h before 0.6% acetic acid ip, maximum of three dose groups (30, 10, 3 mg/kg; R 90, 30, 10 mg/kg), n=10
Experimental: For each group, the required weights of drugs are weighted, and are milled with 0.5% CMC—Na to required concentration ready-for-use.
Each group of animals is fasted for 12 h, but drinking ad libitum. At 1 hour after intragastric administration of corresponding drugs, 0.6% acetic acid (0.2 ml/per) is intraperitoneally injected, and the number of writhing of mice in 15 min after injection are recored. The mice with waist muscle repeat shrinkage, bump back, rump torsion and posterior limb stretch are used as writhing positive animals. Inhibition rates of drugs on writhing are calculated based on the following formula:
Inhibition rate (%)=[(number of writhing of the control group−number of writhing of administrated group)/number of writhing of the control group]×100%
Inhibition rate of each dose-group on writhing (%) is obtained by means of above method. Fitting data of dosage (mg/kg) and corresponding inhibition rate (%) via Microsoft EXCEL software to get a trendline, so as to obtain the half-effective inhibiting dose (ED50) of each tested group on writhing.

[2] = system: ICR mice; test: in vivo; settings: LD50 ip compared with S
Text: (§1) Each tested group includes 5 dose-groups during the tests as follows:
(§2) Intraperitoneal injection (ip)
(§3) (3) Observed periods: 14 days.

[3] = in vivo; settings: mouse, in vivo, ip
Text: as §1, §2, §3

[4] = system: hot plate pain threshold of mice; test: hot plate pain threshold of mice; type: in vivo; settings: for pain threshold(s) 0 h: 0 h (base threshold before administration); for pain threshold(s) 0.5 h: 0.5 h after administration; for pain threshold(s) 1 h: 1 h after administration
Experimental: On the basis of preliminary test, 90 healthy Kunming species of Mus musculus albus are selected, female, weight 18˜22 g, […], and each group of 10 mice, said tested groups comprising:
Each group of animals is pasted for 12 h, but drinking ad libitum. Mice are placed on a homoiothermal hot plate (55±0.5[…]), and the time of occurrence of licking foot is recorded as pain threshold. Appropriate mice (whose reaction time of pain is less than 60 seconds) are selected and randomly divided into groups, and pain thresholds are measured twice before administration and the average value is used as base pain threshold. At 0.5 h and 1 hour after intragastric administration of corresponding drugs, the pain threshold of each mouse is measured (if there are no reaction of pain in 60 seconds, then the threshold is considered as 60 second).
Using Microsoft EXCEL software, the average value of pain threshold of each tested group and the average value of control group are performed t-test analysis, and P<0.05 is considered as statistically significant difference.

[5] = system: ICR mice; test: in vivo; settings: LD50 ig compared with S
Text: as §1
(§4) Intragastric administration (ig)
(§5) (3) Observed periods: 14 days

[6] = in vivo; settings: mouse, in vivo, po
Text: as §1, §4, §5

[7] = system: SD rats; test: long-term toxicity test in SD rats, thirteen-week consecutive intragastric administration and four-week convalescence; settings: for nontoxic dosage: 13-week consecutive intragastric administration
Experimental: 2. […] The tested samples are formulated into suspensions by milling with 0.5% CMC—Na; intragastric administration (10 ml/kg) every day for consecutive 13 weeks; on each day, after administration, the general conditions of the animals are observed, and weight and amount of ingestion are determined once every week. In 24 hours after the last administration, half of rats in each tested group are fasted overnight, blood samples are withdrawn via femoral arteries, and the rats are dissected, and the indexes of blood cytology and biochemics, gloss anatomy and histopathological examination are preformed. The administration to remaining half rats is stopped, and the convalescence is observed; general conditions are observed and weight and amount of ingestion are determined once every week. After 4 weeks, the observation is complete, and the half of rats in each tested group are fasted overnight, blood samples are withdrawn via femoral arteries, and the rats are dissected, and the indexes of blood cytology and biochemics, gloss anatomy and histopathological examination are preformed.

[8] = system: SD rats; test: toxicity test in SD rats, four-week consecutive intragastric administration; settings: for animals dead during 4 weeks administration: 10 rats per group; for nontoxic dosage: four-week consecutive intragastric administration
Experimental: 2. […] The tested samples are formulated into suspensions by milling with 0.5% CMC—Na; intragastric administration every day (10 ml/kg) for consecutive 4 weeks; on each day, after administration, the general conditions of the animals are observed, and weight and amount of ingestion are determined once every week. In 24 hours after the last administration, the rats are fasted overnight, blood samples are withdrawn via femoral arteries, and the rats are dissected, and the indexes of blood cytology and biochemics, gloss anatomy and histopathological examination are preformed.

[9] = target: T1, Cox-1 (Ovis aries, UniProt P05979); test: inhibiting activity to COX-1 (TMPD colorimetric, 590 nm); type: biochemical; settings: tested at 300, 100, 30, 10 μmol/L (positive control 100, 30, 10, 3)
T1 construct: purchased Cayman, USA
T1 sequence (P05979 25-600): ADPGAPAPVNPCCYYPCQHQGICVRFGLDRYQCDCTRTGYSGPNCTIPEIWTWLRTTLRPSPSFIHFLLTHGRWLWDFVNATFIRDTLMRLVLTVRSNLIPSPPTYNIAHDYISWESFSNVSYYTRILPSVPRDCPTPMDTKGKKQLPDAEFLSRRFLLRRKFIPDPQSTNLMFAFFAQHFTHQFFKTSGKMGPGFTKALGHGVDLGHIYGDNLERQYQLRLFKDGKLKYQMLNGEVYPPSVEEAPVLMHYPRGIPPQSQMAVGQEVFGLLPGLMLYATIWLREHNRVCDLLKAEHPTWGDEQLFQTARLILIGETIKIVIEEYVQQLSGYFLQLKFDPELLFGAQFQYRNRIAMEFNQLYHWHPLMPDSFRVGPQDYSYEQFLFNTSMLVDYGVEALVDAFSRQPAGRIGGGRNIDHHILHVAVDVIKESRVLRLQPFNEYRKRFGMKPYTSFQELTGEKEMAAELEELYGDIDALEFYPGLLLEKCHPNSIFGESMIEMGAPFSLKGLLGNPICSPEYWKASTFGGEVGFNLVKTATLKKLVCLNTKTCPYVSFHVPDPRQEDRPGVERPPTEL
Experimental: 2.5.1 The Inhibiting Activity to COX-1/COX-2
(1) In 220 ul of reaction system, mixed buffer (1×), heme, COX-1/COX-2, and the compound to be tested, are sequentially added, and are incubated for 5 minutes at 25° C.;
(2) Adding chromogenic substrate (TMPD) and arachidonic acid;
(3) Carefully shaking the plate for several seconds, then incubating for 15 minutes at 25° C.;
(4) Detecting absorption value at 590 nm.
Fitting data of concentration (μmol/L) and corresponding inhibition rate (%) via Microsoft EXCEL software to get a trendline, so as to obtain the half-effective inhibiting concentration (IC50) of each tested enzyme.

Structure (SMILES) | ED50 [1] [mg/kg] | maximum inhibitory rate (%) on mouse writhing [1] [%] | Com. Vs. S (multiple) [2] [multiple] | LD50 at 14 days ([3]; ICR) [mg/kg] | pain threshold(s) 0 h ([4]; 40 mg/kg ig) [s] | pain threshold(s) 0.5 h ([4]; 40 mg/kg ig) [s] | pain threshold(s) 1 h ([4]; 40 mg/kg ig) [s] | pain threshold(s) 0 h ([4]; 80 mg/kg ig) [s] | pain threshold(s) 0.5 h ([4]; 80 mg/kg ig) [s] | pain threshold(s) 1 h ([4]; 80 mg/kg ig) [s] | Com. Vs. S (multiple) [5] [multiple] | LD50 at 14 days ([6]; ICR) [mg/kg] | nontoxic dosage ([7]; rats) [mg/kg] | animals dead during 4 weeks administration ([8]; 80 mg/kg ig daily) | nontoxic dosage ([8]; rats) [mg/kg] | IC50 [9] [µM] | other results
C[C@H](C(=O)O)c1ccc2c(c1)CC(=O)c1ccccc1S2 [S, S-10,11-dihydro-alpha-methyl-10-oxo-dibenzo[b,f]tiazem-2-acetic acid] | 8.6 | 80.1 | 1.0 | 201 ± 14.3 | 12.9 ± 5.0 | 10.8 ± 2.7 | 10.6 ± 4.6 | 13.6 ± 9.6 | 12.7 ± 6.9 | 7.9 ± 1.8 | 1.0 | 268 ± 22.2 | 12.5 | four | 20 | 186 | animals dead during 4 weeks administration ([8]; 40 mg/kg ig daily): one
CC(C(=O)O)c1ccc2c(c1)CC(=O)c1ccccc1S2 (racemic) [RS, 10,11-dihydro-alpha-methyl-10-oxo-dibenzo[b,f]tiazem-2-acetic acid, reference compound] | 9.2 | 63.6 | 1.3 | – | 12.8 ± 3.7 | 9.9 ± 2.7 | 10.7 ± 5.7 | 12.7 ± 3.1 | 11.7 ± 5.2 | 9.6 ± 3.5 | 1.2 | – | 25 | 2 animals | 40 | 153 | LD50 at 14 days [3]: 252 ± 18.9 mg/kg; LD50 at 14 days [6]: 327 ± 30.7 mg/kg; animals dead during thirteen-week administration ([7]; 50 mg/kg ig daily, 20 rats per group): 2 animals; gastrointestinal tract toxicity ([7]; 13-week ig, rats, S 50, 25, RS 50, R 400, 200, 100, R:S=6:1 200, 100, 50 mg/kg): produces significant gastrointestinal tract toxicity; gastrointestinal tract toxicity ([8]; four-week ig, rats, S 80, 40, RS 80, R 480, 240, 120, R:S=6:1 320, 160, 80 mg/kg): produces significant gastrointestinal tract toxicity
C[C@@H](C(=O)O)c1ccc2c(c1)CC(=O)c1ccccc1S2 [R, R-10,11-dihydro-alpha-methyl-10-oxo-dibenzo[b,f]tiazem-2-acetic acid] | 25.4 | 71.3 | 3.7 | 744 ± 69.8 | 17.6 ± 13.8 | 12.0 ± 7.8 | – | 21.5 ± 15.5 | – | 17.5 ± 12.3 | 14.9 | 3990 ± 153 | 200 | – | 240 | > 300 | pain threshold(s) 0 h ([4]; 160 mg/kg ig): 22.0 ± 4.9 s; pain threshold(s) 0.5 h ([4]; 160 mg/kg ig): 24.1 ± 15.1 s; pain threshold(s) 1 h ([4]; 160 mg/kg ig): 27.3 ± 11.9 s
